# Measurements reported in article PMC5218480 (PLoS ONE, 2017).
# Tested on: MV-4-11 cells
# Test: Gene expression microarray analysis (Affymetrix PrimeView) and GSEA
# Assay type: cell-based, human
# Parameters: RFU PODN (11730768_x_at) / Fold change /veh PODN (11730768_x_at) / RFU LINC00158 (11744669_a_at) / Fold change /veh LINC00158 (11744669_a_at) / RFU DUSP10 (11751237_a_at) / Fold change /veh DUSP10 (11751237_a_at) / RFU ID3 (11757404_x_at) / Fold change /veh ID3 (11757404_x_at) / RFU PLEKHG5 (11737974_s_at) / Fold change /veh PLEKHG5 (11737974_s_at) / RFU LRRC4B (11730491_at) / Fold change /veh LRRC4B (11730491_at) / RFU GIMAP4 (11747438_a_at) / Fold change /veh GIMAP4 (11747438_a_at) / RFU KRT8 (11758183_x_at) / Fold change /veh KRT8 (11758183_x_at) / RFU CNN1 (11734310_a_at) / Fold change /veh CNN1 (11734310_a_at) / RFU VPS37D (11726825_at) / Fold change /veh VPS37D (11726825_at) / RFU C10orf10 (11716522_x_at) / Fold change /veh C10orf10 (11716522_x_at) / RFU KIR2DL2 /// KIR2DL4 /// KIR2DL5A /// KIR2DL5B /// KIR2DS1 /// KIR2DS2 /// KIR2DS3 /// KIR2DS4 /// KIR3DL3 /// KIR3DL3 /// KIR3DS1 (11738374_at) / Fold change /veh KIR2DL2 /// KIR2DL4 /// KIR2DL5A /// KIR2DL5B /// KIR2DS1 /// KIR2DS2 /// KIR2DS3 /// KIR2DS4 /// KIR3DL3 /// KIR3DL3 /// KIR3DS1 (11738374_at) / RFU C1QL1 (11718748_at) / Fold change /veh C1QL1 (11718748_at) / RFU TMPRSS4 (11747572_a_at) / Fold change /veh TMPRSS4 (11747572_a_at) / RFU HAMP (11756126_x_at) / Fold change /veh HAMP (11756126_x_at) / RFU RNFT2 (11725882_a_at) / Fold change /veh RNFT2 (11725882_a_at) / RFU NR4A2 (11747474_a_at) / Fold change /veh NR4A2 (11747474_a_at) / RFU ABCC12 (11746883_a_at) / Fold change /veh ABCC12 (11746883_a_at) / RFU TMEM136 (11760407_x_at) / Fold change /veh TMEM136 (11760407_x_at) / RFU CLDN22 /// WWC2 (11732394_at) / Fold change /veh CLDN22 /// WWC2 (11732394_at) / RFU HLA-DPB1 (11760878_x_at) / Fold change /veh HLA-DPB1 (11760878_x_at) / RFU SPINT1 (11716480_a_at) / Fold change /veh SPINT1 (11716480_a_at) / RFU GAP43 (11754022_s_at) / Fold change /veh GAP43 (11754022_s_at) / RFU A4GNT (11735810_at) / Fold change /veh A4GNT (11735810_at) / RFU PRB3 (11715151_x_at) / Fold change /veh PRB3 (11715151_x_at) / RFU TUBB4B (11761932_at) / Fold change /veh TUBB4B (11761932_at) / RFU CAPN14 (11732068_a_at) / Fold change /veh CAPN14 (11732068_a_at) / RFU TMCC2 (11721928_a_at) / Fold change /veh TMCC2 (11721928_a_at) / RFU IRGQ (11745062_a_at) / Fold change /veh IRGQ (11745062_a_at) / RFU FAM174B (11720279_a_at) / Fold change /veh FAM174B (11720279_a_at) / RFU TMPRSS4 (11748680_a_at) / Fold change /veh TMPRSS4 (11748680_a_at) / RFU FAM212B (11763350_a_at) / Fold change /veh FAM212B (11763350_a_at) / RFU PLEKHG5 (11743358_a_at) / Fold change /veh PLEKHG5 (11743358_a_at) / RFU ZSCAN30 (11745921_a_at) / Fold change /veh ZSCAN30 (11745921_a_at) / RFU CMKLR1 (11741424_a_at) / Fold change /veh CMKLR1 (11741424_a_at) / RFU LOC101060620 /// MAPK8IP1 (11723275_at) / Fold change /veh LOC101060620 /// MAPK8IP1 (11723275_at) / RFU SPTSSB (11747773_x_at) / Fold change /veh SPTSSB (11747773_x_at) / RFU PRSS12 (11739890_at) / Fold change /veh PRSS12 (11739890_at) / RFU BIN1 (11741810_x_at) / Fold change /veh BIN1 (11741810_x_at) / RFU WNT11 (11732464_a_at) / Fold change /veh WNT11 (11732464_a_at) / RFU C10orf10 (11716521_a_at) / Fold change /veh C10orf10 (11716521_a_at) / RFU C5orf56 (11738089_at) / Fold change /veh C5orf56 (11738089_at) / RFU CYB561 (11721691_x_at) / Fold change /veh CYB561 (11721691_x_at) / RFU ANKRD19P (11752326_a_at) / Fold change /veh ANKRD19P (11752326_a_at) / RFU OR2T12 /// OR2T33 /// OR2T8 (11738714_s_at) / Fold change /veh OR2T12 /// OR2T33 /// OR2T8 (11738714_s_at) / RFU VCAN (11748164_a_at) / Fold change /veh VCAN (11748164_a_at) / RFU JSRP1 (11732532_at) / Fold change /veh JSRP1 (11732532_at) / RFU KRTAP10-11 (11738290_x_at) / Fold change /veh KRTAP10-11 (11738290_x_at) / RFU MYO3A (11730013_a_at) / Fold change /veh MYO3A (11730013_a_at) / RFU EBF3 (11725865_a_at) / Fold change /veh EBF3 (11725865_a_at) / RFU CAMK2N1 (11719241_x_at) / Fold change /veh CAMK2N1 (11719241_x_at) / RFU C5orf56 (11738088_a_at) / Fold change /veh C5orf56 (11738088_a_at) / RFU OLFML3 (11715873_a_at) / Fold change /veh OLFML3 (11715873_a_at) / RFU LOC100653217 /// NTM (11731650_a_at) / Fold change /veh LOC100653217 /// NTM (11731650_a_at) / RFU MAPK11 (11762145_a_at) / Fold change /veh MAPK11 (11762145_a_at) / RFU FIZ1 (11724087_x_at) / Fold change /veh FIZ1 (11724087_x_at) / RFU OASL (11726364_x_at) / Fold change /veh OASL (11726364_x_at) / RFU SOX15 (11748057_x_at) / Fold change /veh SOX15 (11748057_x_at) / RFU CD79A (11719716_a_at) / Fold change /veh CD79A (11719716_a_at) / RFU HIST1H1D (11736915_at) / Fold change /veh HIST1H1D (11736915_at) / RFU CASKIN2 (11723855_a_at) / Fold change /veh CASKIN2 (11723855_a_at) / RFU LOC730098 (11760151_x_at) / Fold change /veh LOC730098 (11760151_x_at) / RFU OR4N2 (11742367_at) / Fold change /veh OR4N2 (11742367_at) / RFU PRRT2 (11749266_a_at) / Fold change /veh PRRT2 (11749266_a_at) / RFU SNX32 (11753110_a_at) / Fold change /veh SNX32 (11753110_a_at) / RFU CDHR5 (11726645_a_at) / Fold change /veh CDHR5 (11726645_a_at) / RFU RCAN1 (11760418_a_at) / Fold change /veh RCAN1 (11760418_a_at) / RFU FAM167A (11723789_a_at) / Fold change /veh FAM167A (11723789_a_at) / RFU FAM26E (11764081_at) / Fold change /veh FAM26E (11764081_at) / RFU ISYNA1 (11749810_s_at) / Fold change /veh ISYNA1 (11749810_s_at) / RFU ACY1 (11761880_at) / Fold change /veh ACY1 (11761880_at) / RFU 11764098_at / Fold change /veh 11764098_at / RFU SAMD14 (11745864_x_at) / Fold change /veh SAMD14 (11745864_x_at) / RFU NPB (11741838_a_at) / Fold change /veh NPB (11741838_a_at) / RFU TMPRSS6 (11731388_a_at) / Fold change /veh TMPRSS6 (11731388_a_at) / RFU KRTAP10-2 (11738614_at) / Fold change /veh KRTAP10-2 (11738614_at) / RFU ARHGAP8 /// PRR5-ARHGAP8 (11727945_x_at) / Fold change /veh ARHGAP8 /// PRR5-ARHGAP8 (11727945_x_at) / RFU KRTAP5-7 /// NADSYN1 (11734609_at) / Fold change /veh KRTAP5-7 /// NADSYN1 (11734609_at) / RFU RASL12 (11751679_a_at) / Fold change /veh RASL12 (11751679_a_at) / RFU CDKN2B (11736163_a_at) / Fold change /veh CDKN2B (11736163_a_at) / RFU PRF1 (11729649_at) / Fold change /veh PRF1 (11729649_at) / RFU, ZNF638 /// ZNF638-IT1 / Fold change vs veh, ZNF638 /// ZNF638-IT1 / RFU, PANK3 / Fold change vs veh, PANK3 / RFU, SH3YL1 / Fold change vs veh, SH3YL1 / RFU, ZEB2 / Fold change vs veh, ZEB2 / RFU, NRIP1 / Fold change vs veh, NRIP1 / RFU, PTTG1IP / Fold change vs veh, PTTG1IP / RFU, CAPN2 / Fold change vs veh, CAPN2 / RFU, MED14 / Fold change vs veh, MED14 / RFU, SNORA58 / Fold change vs veh, SNORA58 / RFU, C1orf63 / Fold change vs veh, C1orf63 / RFU, LRRFIP1 / Fold change vs veh, LRRFIP1 / RFU, NDUFAF7 / Fold change vs veh, NDUFAF7 / RFU, SLC12A2 / Fold change vs veh, SLC12A2 / RFU, IBTK / Fold change vs veh, IBTK / RFU, ESF1 / Fold change vs veh, ESF1 / Fold change vs veh, TMEM50B / RFU, TAOK1 / Fold change vs veh, TAOK1 / RFU, ACBD3 / Fold change vs veh, ACBD3 / RFU, TMA16 / Fold change vs veh, TMA16 / RFU, RWDD3 / Fold change vs veh, RWDD3 / RFU, BCAT1 / Fold change vs veh, BCAT1 / RFU, EDEM3 / Fold change vs veh, EDEM3 / RFU, TMEM33 / Fold change vs veh, TMEM33 / RFU, WDR75 / Fold change vs veh, WDR75 / RFU, AHCTF1 / Fold change vs veh, AHCTF1 / RFU, TFRC / Fold change vs veh, TFRC / RFU, ZDHHC17 / Fold change vs veh, ZDHHC17 / RFU, NOM1 / Fold change vs veh, NOM1 / RFU, ARL8B / Fold change vs veh, ARL8B / RFU, ZBTB11 / Fold change vs veh, ZBTB11 / RFU, TAMM41 / Fold change vs veh, TAMM41 / RFU, KIAA1704 /// LOC100996395 / Fold change vs veh, KIAA1704 /// LOC100996395 / RFU, ING1 / Fold change vs veh, ING1 / RFU, TRMT61B / Fold change vs veh, TRMT61B / RFU, FUBP3 / Fold change vs veh, FUBP3 / RFU, TP53 / Fold change vs veh, TP53 / RFU, TNKS2 / Fold change vs veh, TNKS2 / RFU, ZFP14 / Fold change vs veh, ZFP14 / RFU, ACTR2 / Fold change vs veh, ACTR2 / RFU, PPP3R1 / Fold change vs veh, PPP3R1 / RFU, PIK3R1 / Fold change vs veh, PIK3R1 / RFU, HNRNPA1 / Fold change vs veh, HNRNPA1 / RFU, RNF170 / Fold change vs veh, RNF170 / RFU, ZNF28 / Fold change vs veh, ZNF28 / RFU, RNGTT / Fold change vs veh, RNGTT / RFU, OGT / Fold change vs veh, OGT / RFU, BRD1 / Fold change vs veh, BRD1 / RFU, MARS / Fold change vs veh, MARS / RFU, ZNF655 / Fold change vs veh, ZNF655 / RFU, FAHD1 / Fold change vs veh, FAHD1 / RFU, BDP1 / Fold change vs veh, BDP1 / RFU, LRRCC1 / Fold change vs veh, LRRCC1 / RFU, ARID1A / Fold change vs veh, ARID1A / RFU, ZNF146 / Fold change vs veh, ZNF146 / RFU, ZNF330 / Fold change vs veh, ZNF330 / RFU, GPN3 / Fold change vs veh, GPN3 / RFU, C9orf123 / Fold change vs veh, C9orf123 / RFU, N4BP2L2 / Fold change vs veh, N4BP2L2 / RFU, ARFIP1 / Fold change vs veh, ARFIP1 / RFU, FAM179B / Fold change vs veh, FAM179B / RFU, BCL10 / Fold change vs veh, BCL10 / RFU, UHRF1BP1L / Fold change vs veh, UHRF1BP1L / RFU, BET1 / Fold change vs veh, BET1 / RFU, CNOT2 / Fold change vs veh, CNOT2 / RFU, ZNF268 / Fold change vs veh, ZNF268 / Fold change vs veh, ZNF507 / RFU, DGCR2 / Fold change vs veh, DGCR2 / RFU, WDSUB1 / Fold change vs veh, WDSUB1 / Fold change vs veh, HSP90B1 /// MIR3652 / RFU, ADSS / Fold change vs veh, ADSS / RFU, GK / Fold change vs veh, GK / RFU, ZNF148 / Fold change vs veh, ZNF148 / RFU, TAF9 / Fold change vs veh, TAF9 / RFU, SLC1A5 / Fold change vs veh, SLC1A5 / RFU, SLMO2 / Fold change vs veh, SLMO2 / RFU, ABCC4 / Fold change vs veh, ABCC4 / RFU, LOC101060439 /// RAP1B / Fold change vs veh, LOC101060439 /// RAP1B / RFU, RFX7 / Fold change vs veh, RFX7 / RFU, GTPBP10 / Fold change vs veh, GTPBP10 / RFU, CNEP1R1 / Fold change vs veh, CNEP1R1 / RFU, BIVM-ERCC5 /// ERCC5 / Fold change vs veh, BIVM-ERCC5 /// ERCC5 / RFU, ILF3 / Fold change vs veh, ILF3 / RFU 11762660_at / Fold change /veh 11762660_at / RFU VCAN (11757783_s_at) / Fold change /veh VCAN (11757783_s_at) / RFU DDX43 (11728927_at) / Fold change /veh DDX43 (11728927_at) / RFU KRT8 (11758188_x_at) / Fold change /veh KRT8 (11758188_x_at) / RFU NKD1 (11759106_at) / Fold change /veh NKD1 (11759106_at) / RFU SRD5A1 (11742802_a_at) / Fold change /veh SRD5A1 (11742802_a_at) / RFU TPSAB1 /// TPSB2 (11721975_s_at) / Fold change /veh TPSAB1 /// TPSB2 (11721975_s_at) / RFU GSTM3 (11746129_a_at) / Fold change /veh GSTM3 (11746129_a_at) / RFU IL23R (11737362_x_at) / Fold change /veh IL23R (11737362_x_at) / RFU TMEM51 (11727254_a_at) / Fold change /veh TMEM51 (11727254_a_at) / RFU PIWIL2 (11732686_x_at) / Fold change /veh PIWIL2 (11732686_x_at) / RFU ORM1 (11744905_x_at) / Fold change /veh ORM1 (11744905_x_at) / RFU CCDC152 (11743942_at) / Fold change /veh CCDC152 (11743942_at) / RFU ECM1 (11717891_a_at) / Fold change /veh ECM1 (11717891_a_at) / RFU IL23R (11748794_a_at) / Fold change /veh IL23R (11748794_a_at) / RFU TNFAIP8L3 (11732012_x_at) / Fold change /veh TNFAIP8L3 (11732012_x_at) / RFU MBOAT4 (11741988_at) / Fold change /veh MBOAT4 (11741988_at) / RFU 11764193_at / Fold change /veh 11764193_at / RFU TMEM53 (11763286_at) / Fold change /veh TMEM53 (11763286_at) / RFU MAGEB2 (11727129_at) / Fold change /veh MAGEB2 (11727129_at) / RFU TMEM200A (11744735_a_at) / Fold change /veh TMEM200A (11744735_a_at) / RFU CCDC152 (11751479_a_at) / Fold change /veh CCDC152 (11751479_a_at) / RFU FAM211A (11726209_a_at) / Fold change /veh FAM211A (11726209_a_at) / RFU RGS16 (11746705_a_at) / Fold change /veh RGS16 (11746705_a_at) / RFU VCAN (11755009_s_at) / Fold change /veh VCAN (11755009_s_at) / RFU RHOB (11743442_s_at) / Fold change /veh RHOB (11743442_s_at) / RFU RGS16 (11720943_a_at) / Fold change /veh RGS16 (11720943_a_at) / RFU RGS16 (11720944_at) / Fold change /veh RGS16 (11720944_at) / RFU, VPS4B / Fold change vs veh, VPS4B / RFU, CREB1 / Fold change vs veh, CREB1 / RFU, DNAJC13 / Fold change vs veh, DNAJC13 / RFU, GNAQ / Fold change vs veh, GNAQ / RFU, CDK5R1 / Fold change vs veh, CDK5R1 / RFU, ZRANB3 / Fold change vs veh, ZRANB3 / RFU, CUL4A / Fold change vs veh, CUL4A / RFU, CCNY / Fold change vs veh, CCNY / RFU, UFL1 / Fold change vs veh, UFL1 / RFU, COG3 / Fold change vs veh, COG3 / RFU, DIAPH2 / Fold change vs veh, DIAPH2 / RFU, SKA2 / Fold change vs veh, SKA2 / RFU, AFF3 / Fold change vs veh, AFF3 / RFU, LMF1 / Fold change vs veh, LMF1 / RFU, IPO11 / Fold change vs veh, IPO11 / RFU, DFFB / Fold change vs veh, DFFB / RFU, FOXP1 / Fold change vs veh, FOXP1 / RFU, CARD8 / Fold change vs veh, CARD8 / RFU, STRN3 / Fold change vs veh, STRN3 / RFU, ADK / Fold change vs veh, ADK / RFU, RASSF2 / Fold change vs veh, RASSF2 / RFU, WIPF1 / Fold change vs veh, WIPF1 / RFU, LARP1B / Fold change vs veh, LARP1B / RFU, RASA1 / Fold change vs veh, RASA1 / RFU, RB1 / Fold change vs veh, RB1 / RFU, PPFIA1 / Fold change vs veh, PPFIA1 / RFU, MAT2A / Fold change vs veh, MAT2A / RFU, CCT5 / Fold change vs veh, CCT5 / RFU, WDR92 / Fold change vs veh, WDR92 / RFU, CUX1 / Fold change vs veh, CUX1 / RFU, TTC7A / Fold change vs veh, TTC7A / RFU, TMEM135 / Fold change vs veh, TMEM135 / RFU, DEPTOR / Fold change vs veh, DEPTOR / RFU, CPM / Fold change vs veh, CPM / RFU, DNAJB6 / Fold change vs veh, DNAJB6 / RFU, CACNA2D3 / Fold change vs veh, CACNA2D3 / RFU, DTX4 / Fold change vs veh, DTX4 / RFU, TFCP2 / Fold change vs veh, TFCP2 / RFU, GMCL1 /// GMCL1P1 / Fold change vs veh, GMCL1 /// GMCL1P1 / RFU, AEBP2 / Fold change vs veh, AEBP2 / RFU, SNHG1 /// SNORD22 /// SNORD25 /// SNORD26 /// SNORD27 /// SNORD28 /// SNORD29 /// SNORD31 / Fold change vs veh, SNHG1 /// SNORD22 /// SNORD25 /// SNORD26 /// SNORD27 /// SNORD28 /// SNORD29 /// SNORD31 / Fold change (Aza/veh), C12orf56 (ProbeSet 11735607_a_at) / Fold change (ACY-1035/veh), C12orf56 (ProbeSet 11735607_a_at) / Fold change (Aza/veh), FGFR1OP (ProbeSet 11751329_s_at) / Fold change (ACY-1035/veh), FGFR1OP (ProbeSet 11751329_s_at) / Fold change (Aza/veh), VPS36 (ProbeSet 11739960_a_at) / Fold change (ACY-1035/veh), VPS36 (ProbeSet 11739960_a_at) / RFU SYPL1 (11715823_x_at) / Fold change /veh SYPL1 (11715823_x_at) / RFU IGFBP7 (11715501_s_at) / Fold change /veh IGFBP7 (11715501_s_at) / RFU REEP3 (11722064_at) / Fold change /veh REEP3 (11722064_at) / RFU IGLL1 (11728026_x_at) / Fold change /veh IGLL1 (11728026_x_at): dose or concentration left out as unconfirmed
# Conditions: MV-4-11 cells, 48 hours
structure (smiles),measurement,value
Nc1ncn([C@@H]2O[C@H](CO)[C@@H](O)[C@H]2O)c(=O)n1 [azacitidine],Fold change /veh IL23R (11737362_x_at),1.70
